pKi: −log10 of the molar value.
Tests used:
[1] = target: rat 5HT transporter (rSERT) (Rattus norvegicus, UniProt P31652); experiment: [3H]5HT transport assay in HeLa cells transfected with BS4E-10 cDNA (rSERT); format: cell-based
[2] = target: human 5HT transporter (hSERT) (Homo sapiens, UniProt P31645); experiment: [3H]5HT transport assay in HeLa cells transfected with hSERT cDNA
NCCc1c[nH]c2ccc(O)cc12 = experiment: cells, lysate or membranes; conditions: other: increasing concentrations of unlabeled 5HT, Eadie-Hofstee transformation, transfected HeLa cells; pH 7.4; 37.0 °C

Chain of rat 5HT transporter (rSERT) (P31652 whole entry): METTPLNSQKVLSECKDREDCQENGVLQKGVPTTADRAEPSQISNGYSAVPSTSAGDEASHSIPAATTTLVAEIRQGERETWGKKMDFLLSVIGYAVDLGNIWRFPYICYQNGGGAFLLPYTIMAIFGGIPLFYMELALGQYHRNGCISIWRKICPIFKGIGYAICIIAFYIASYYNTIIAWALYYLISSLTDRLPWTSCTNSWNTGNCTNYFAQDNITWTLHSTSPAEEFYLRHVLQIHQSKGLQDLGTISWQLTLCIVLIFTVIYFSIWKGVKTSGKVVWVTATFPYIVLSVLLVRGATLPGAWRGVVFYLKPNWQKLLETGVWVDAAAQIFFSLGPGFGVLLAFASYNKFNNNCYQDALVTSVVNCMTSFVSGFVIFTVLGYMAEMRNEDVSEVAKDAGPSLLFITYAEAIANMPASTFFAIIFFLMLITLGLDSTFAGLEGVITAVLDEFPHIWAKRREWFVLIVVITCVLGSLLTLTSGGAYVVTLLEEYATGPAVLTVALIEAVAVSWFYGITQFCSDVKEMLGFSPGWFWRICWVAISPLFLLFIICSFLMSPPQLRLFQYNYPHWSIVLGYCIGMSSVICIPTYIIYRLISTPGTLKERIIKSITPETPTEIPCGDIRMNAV
Chain of human 5HT transporter (hSERT) (P31645 whole entry): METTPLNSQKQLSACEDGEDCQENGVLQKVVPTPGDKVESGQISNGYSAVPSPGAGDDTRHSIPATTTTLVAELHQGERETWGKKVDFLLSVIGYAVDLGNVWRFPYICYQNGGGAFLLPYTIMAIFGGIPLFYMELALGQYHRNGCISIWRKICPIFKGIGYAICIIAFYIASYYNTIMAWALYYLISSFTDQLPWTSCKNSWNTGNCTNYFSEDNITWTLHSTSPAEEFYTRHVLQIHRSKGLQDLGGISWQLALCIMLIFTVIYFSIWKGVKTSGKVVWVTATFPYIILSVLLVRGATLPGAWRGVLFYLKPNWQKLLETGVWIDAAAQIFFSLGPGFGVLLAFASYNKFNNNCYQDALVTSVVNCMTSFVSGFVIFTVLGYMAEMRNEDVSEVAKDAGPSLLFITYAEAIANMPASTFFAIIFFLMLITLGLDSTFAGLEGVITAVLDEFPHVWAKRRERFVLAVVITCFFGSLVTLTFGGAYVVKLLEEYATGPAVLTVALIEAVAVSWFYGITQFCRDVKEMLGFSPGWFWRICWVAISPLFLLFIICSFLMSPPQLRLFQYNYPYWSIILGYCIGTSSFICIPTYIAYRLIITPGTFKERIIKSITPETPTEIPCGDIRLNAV

Molecule	pKi [1]	inhibition of 5HT uptake (in words) [2]	further results
NCCc1c[nH]c2ccc(O)cc12 [5HT, 5-hydroxytryptamine]	–	–	Vmax of 5HT transport ([1]; increasing concentrations of unlabeled 5HT, transfected HeLa cells): 6.7×10^-18 mol/cell/min; Km ([1]; read-out: Km of 5HT transport, increasing concentrations of unlabeled 5HT, transfected HeLa cells): 1.5 µM
NCCc1ccc(O)c(O)c1 [Dopamine, dopamine]	< 5.00	–	–
COC(=O)[C@H]1[C@@H](c2ccc(I)cc2)C[C@@H]2CC[C@H]1N2C.O=C(O)C(O)C(O)C(=O)O [RTI-55, 3β-[4-iodophenyl]tropan-2β-carboxylic acid methyl ester tartrate]	–	increased potency over cocaine	–
CC(N)Cc1ccccc1 (stereo not drawn) [amphetamine]	–	block 5HT transport at low micromolar concentrations	–
COC(=O)[C@H]1[C@@H](OC(=O)c2ccccc2)C[C@@H]2CC[C@H]1N2C [cocaine]	–	block 5HT transport at low micromolar concentrations	potency for 5HT transport inhibition compared with inhibition of the cloned NA carrier ([1]; rSERT in transfected cells vs cloned NA transporter): predictably lower potency; antagonism of 5HT transport (in words) ([1]; transfected HeLa cells): blocked 5HT transport
NCCc1c[nH]cn1 [histamine]	< 5.00	–	–
OC1(c2ccc(Cl)cc2)c2ccccc2C2=NCCN21 (stereo not drawn) [mazindol]	5.00	–	–
NC[C@H](O)c1ccc(O)c(O)c1 [noradrenaline]	< 5.00	–	–
human 5HT transporter (hSERT) (Homo sapiens)	–	–	Km (NCCc1c[nH]c2ccc(O)cc12): 0.463 µM

Source: US5418162A, “Serotonin transporter CDNA” (Duke University, priority 1992, dated 1995)
